Here are results for 22 compounds from patent US8937091B2 (Japan Science and Technology Agency, priority 2009, dated 2015).

For experiment [1], the system named is SOCE (store operated calcium entry) in CHO cells. Put plainly: Assay of SOCE (store operated calcium entry)-inhibiting action. It counts as cell-based, Chinese hamster. Particulars: CHO cells, thapsigargin; for inhibition at 10 µM / inhibition at 30 µM / inhibition at 100 µM: Cricetulus griseus, CHO, read-out: SOCE level (percentage of inhibition). An outline of the steps: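 CHO cells in calcium-free BSS received compound, then 1 μM thapsigargin 2 min later to deplete stores; after 9 min, 2 mM calcium chloride (final) added. Percent inhibition of the rise in intracellular calcium determined at various compound concentrations.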

Experiment [2] has as its system IICR (IP3 induced calcium release) in CHO cells. Put plainly: Assay of IICR (IP3 induced calcium release)-inhibiting action. It counts as cell-based, Chinese hamster. Particulars: CHO cells, 10 μM ATP; for inhibition at 10 µM / inhibition at 30 µM / inhibition at 100 µM: Cricetulus griseus, CHO, read-out: IICR level (percentage of inhibition). In short, it runs like this:
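Inhibition (%) of the intracellular calcium increase triggered by 10 μM ATP, measured in CHO cells in BSS with calcium. Compound given 1 min after the buffer exchange and 2 min before ATP; values reported per compound concentration.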

For `O=C(CCN(c1ccccc1)c1ccccc1)c1ccccn1` [Example 185, 2-(N,N-diphenyl)aminoethyl-2-pyridylketone], the inhibition at 10 µM in experiment [1] (test compound 10 μmol) and in experiment [2] (test compound 10 μmol) was 0% throughout. Moreover, the inhibition at 30 µM in experiment [1] (test compound 30 μmol) and in experiment [2] (test compound 30 μmol) was 10% each time. Further, the inhibition at 100 µM in experiment [1] (test compound 100 μmol) and in experiment [2] (test compound 100 μmol) was 20% each time.

Consider `CCc1nccnc1C(=O)CCN(Cc1ccccc1)C(C)C` [Example 186, 2-(N-isopropylbenzyl)aminoethyl-2-(3-ethyl)-pyrazylketone], for which the inhibition at 10 µM in experiment [1] (test compound 10 μmol) is 0%; in experiment [2] (test compound 10 μmol), 70%. Further, the results for the inhibition at 30 µM in experiment [1] (test compound 30 μmol) and in experiment [2] (test compound 30 μmol) were 0% and 90%, respectively. For the same compound, the inhibition at 100 µM in experiment [1] (test compound 100 μmol) came to 10%; in experiment [2] (test compound 100 μmol), 100%.

As to `CCc1nccnc1C(=O)CCN(Cc1ccccc1)C(C)(C)C` [Example 188, 2-(N-t-butylbenzyl)aminoethyl-2-(3-ethyl)-pyrazylketone], the inhibition at 10 µM is 0% in experiment [1] (test compound 10 μmol) and 50% in experiment [2] (test compound 10 μmol). Also, the inhibition at 30 µM was 0% in experiment [1] (test compound 30 μmol) and 90% in experiment [2] (test compound 30 μmol). The inhibition at 100 µM in experiment [1] (test compound 100 μmol) came to 20%; in experiment [2] (test compound 100 μmol) it was 100%.

As for `O=C(CCNC12CC3CC(CC(C3)C1)C2)c1ccccc1` [Example 189, 2-N-adamantaneaminoethylphenylketone], the inhibition at 10 µM in experiment [1] (test compound 10 μmol) and in experiment [2] (test compound 10 μmol) was 0% in each case. Besides, the inhibition at 30 µM is 10% in experiment [1] (test compound 30 μmol) and 0% in experiment [2] (test compound 30 μmol). The inhibition at 100 µM in experiment [1] (test compound 100 μmol) was 10%; in experiment [2] (test compound 100 μmol), 0%.

Turning to `Cc1ccc(C(=O)CCNC23CC4CC(CC(C4)C2)C3)o1` [Example 190, 2-N-adamantane-aminoethyl-2-methylfurylketone], the inhibition at 10 µM in experiment [1] (test compound 10 μmol) and in experiment [2] (test compound 10 μmol) was 0% in each case. The inhibition at 30 µM in experiment [1] (test compound 30 μmol) and in experiment [2] (test compound 30 μmol) was 10% each time. The inhibition at 100 µM in experiment [1] (test compound 100 μmol) and in experiment [2] (test compound 100 μmol) was 50% throughout.

As for `CC(CNC12CC3CC(CC(C3)C1)C2)C(=O)c1ccc(F)cc1` (stereo not drawn) [Example 191], the inhibition at 10 µM in experiment [1] (test compound 10 μmol) and in experiment [2] (test compound 10 μmol) was 0% in each case. The inhibition at 30 µM in experiment [1] (test compound 30 μmol) and in experiment [2] (test compound 30 μmol) was 0% each time. The inhibition at 100 µM in experiment [1] (test compound 100 μmol) and in experiment [2] (test compound 100 μmol) was 0% in each case.

In the case of `O=C(CCCCl)c1ccncc1` [Example 192, 3-chloropropyl-4-pyridylketone], the inhibition at 10 µM in experiment [1] (test compound 10 μmol) and in experiment [2] (test compound 10 μmol) was 0% each time. The results for the inhibition at 30 µM in experiment [1] (test compound 30 μmol) and in experiment [2] (test compound 30 μmol) were 10% and 0%, respectively. The inhibition at 100 µM amounted to 20% in experiment [1] (test compound 100 μmol) and 0% in experiment [2] (test compound 100 μmol).

With `CC(C)(C)N(CCC(=O)c1cccs1)Cc1ccccc1` [Example 193, 2-(N-t-butylbenzyl)aminoethyl-2-thiophenylketone], the inhibition at 10 µM in experiment [1] (test compound 10 μmol) was 0%; in experiment [2] (test compound 10 μmol), 70%. The results for the inhibition at 30 µM in experiment [1] (test compound 30 μmol) and in experiment [2] (test compound 30 μmol) were 0% and 95%, respectively. In addition, the values for the inhibition at 100 µM in experiment [1] (test compound 100 μmol) and in experiment [2] (test compound 100 μmol) were 0% and 100%, respectively.

Take `CC(C)N(CCO)CCC(=O)c1cccs1` [Example 194, 2-(N-isopropylhydroxyethyl)aminoethyl-2-thiophenylketone]: the inhibition at 10 µM in experiment [1] (test compound 10 μmol) and in experiment [2] (test compound 10 μmol) was 0% each time. The inhibition at 30 µM in experiment [1] (test compound 30 μmol) and in experiment [2] (test compound 30 μmol) was 0% throughout. Also, the inhibition at 100 µM came to 10% in experiment [1] (test compound 100 μmol) and 0% in experiment [2] (test compound 100 μmol).

In the case of `CC(C)N(CC(=O)c1ccc(F)cc1)Cc1ccccc1` [Example 196, 1-(N-benzylisopropyl)aminomethyl-4-fluorophenylketone], the inhibition at 10 µM in experiment [1] (test compound 10 μmol) and in experiment [2] (test compound 10 μmol) was 0% in each case. Further, the inhibition at 30 µM in experiment [1] (test compound 30 μmol) came out at 20%; in experiment [2] (test compound 30 μmol) it was 10%. In addition, the inhibition at 100 µM in experiment [1] (test compound 100 μmol) is 40%; in experiment [2] (test compound 100 μmol) it was 30%.

For the compound `CC(=O)CCN(CCO)C(C)C` [Example 197, 2-(N-hydroxyethylisopropyl)aminoethylmethylketone], the inhibition at 10 µM in experiment [1] (test compound 10 μmol) and in experiment [2] (test compound 10 μmol) was 0% throughout. Moreover, the inhibition at 30 µM in experiment [1] (test compound 30 μmol) and in experiment [2] (test compound 30 μmol) was 0% in each case. In addition, the inhibition at 100 µM in experiment [1] (test compound 100 μmol) and in experiment [2] (test compound 100 μmol) was 0% throughout.

As for `CC(=O)CCN(Cc1ccccc1)C(C)C` [Example 198, 2-(N-benzylisopropyl)aminoethylmethylketone], the inhibition at 10 µM in experiment [1] (test compound 10 μmol) and in experiment [2] (test compound 10 μmol) was 0% in each case. The inhibition at 30 µM in experiment [1] (test compound 30 μmol) and in experiment [2] (test compound 30 μmol) was 0% throughout. Besides, the inhibition at 100 µM in experiment [1] (test compound 100 μmol) and in experiment [2] (test compound 100 μmol) was 0% throughout.

Turning to `CC(C)N(CCO)CCC(=O)n1ccnc1` [Example 199, 2-(N-isopropylhydroxyethyl)aminoethyl-1-imidazolylketone], the values for the inhibition at 10 µM in experiment [1] (test compound 10 μmol) and in experiment [2] (test compound 10 μmol) were 0% and 10%, respectively. The inhibition at 30 µM in experiment [1] (test compound 30 μmol) was determined as 0%; in experiment [2] (test compound 30 μmol), 20%. The inhibition at 100 µM in experiment [1] (test compound 100 μmol) and in experiment [2] (test compound 100 μmol) was 0% in each case.

In the case of `CC(C)N(CCC(=O)N1CCCCCC1=O)Cc1ccccc1` [Example 200, 3-(N-benzylisopropyl)aminopropionylcaprolactam], the inhibition at 10 µM in experiment [1] (test compound 10 μmol) and in experiment [2] (test compound 10 μmol) was 0% in each case. Besides, the inhibition at 30 µM in experiment [1] (test compound 30 μmol) and in experiment [2] (test compound 30 μmol) was 0% each time. Moreover, the inhibition at 100 µM came to 10% in experiment [1] (test compound 100 μmol) and 20% in experiment [2] (test compound 100 μmol).

In the case of `CC(C)N(CCO)CCC(=O)N1CCCCCC1=O` [Example 201, 3-(N-hydroxyethylisopropyl)aminopropionylcaprolactam], the inhibition at 10 µM in experiment [1] (test compound 10 μmol) and in experiment [2] (test compound 10 μmol) was 0% in each case. In addition, the inhibition at 30 µM in experiment [1] (test compound 30 μmol) and in experiment [2] (test compound 30 μmol) was 0% each time. Further, the inhibition at 100 µM in experiment [1] (test compound 100 μmol) and in experiment [2] (test compound 100 μmol) was 0% throughout.

Take `CC(C)N(CCC(=O)c1cc(Cl)sc1Cl)Cc1ccccc1` [Example 202, 2-(N-isopropylbenzyl)aminomethyl-3-(2,5-dichlorothiophenyl)ketone]: the inhibition at 10 µM turned out to be 0% in experiment [1] (test compound 10 μmol) and 50% in experiment [2] (test compound 10 μmol). Also, the inhibition at 30 µM was determined as 20% in experiment [1] (test compound 30 μmol) and 80% in experiment [2] (test compound 30 μmol). For the same compound, the inhibition at 100 µM came to 50% in experiment [1] (test compound 100 μmol) and 100% in experiment [2] (test compound 100 μmol).

For the compound `CC(C)N(CCO)CCC(=O)c1cc(Cl)sc1Cl` [Example 203, 2-(N-isopropyl-2-hydroxyethyl)aminomethyl-3-(2,5-dichlorothiophenyl)ketone], the inhibition at 10 µM came to 50% in experiment [1] (test compound 10 μmol) and 40% in experiment [2] (test compound 10 μmol). The inhibition at 30 µM was 20% in experiment [1] (test compound 30 μmol) and 90% in experiment [2] (test compound 30 μmol). The figures for the inhibition at 100 µM in experiment [1] (test compound 100 μmol) and in experiment [2] (test compound 100 μmol) were 10% and 100%, respectively.

Take `O=C(CCN(CCO)Cc1ccccc1)c1cc(Cl)sc1Cl` [Example 204, 2-(N-2-hydroxyethylbenzyl)aminomethyl-3-(2,5-dichlorothiophenyl)ketone]: the inhibition at 10 µM in experiment [1] (test compound 10 μmol) and in experiment [2] (test compound 10 μmol) was 0% each time. Further, the results for the inhibition at 30 µM in experiment [1] (test compound 30 μmol) and in experiment [2] (test compound 30 μmol) were 0% and 40%, respectively. For the same compound, the inhibition at 100 µM in experiment [1] (test compound 100 μmol) was 50%; in experiment [2] (test compound 100 μmol), 70%.

`CC(C)N(CCO)CCC(=O)c1ccc2ccccc2c1` [Example 205, 2-(N-hydroxyethylisopropyl)aminoethyl-2-naphthylketone]: the inhibition at 10 µM in experiment [1] (test compound 10 μmol) and in experiment [2] (test compound 10 μmol) was 0% in each case. In addition, the inhibition at 30 µM in experiment [1] (test compound 30 μmol) and in experiment [2] (test compound 30 μmol) was 0% throughout. Further, the inhibition at 100 µM in experiment [1] (test compound 100 μmol) and in experiment [2] (test compound 100 μmol) was 0% throughout.

`CC(C)N(CCO)CC(=O)c1ccccc1` [Example 206, 2-(N-hydroxyethylisopropyl)aminomethylphenylketone]: the inhibition at 10 µM in experiment [1] (test compound 10 μmol) and in experiment [2] (test compound 10 μmol) was 0% each time. Besides, the inhibition at 30 µM in experiment [1] (test compound 30 μmol) and in experiment [2] (test compound 30 μmol) was 0% each time. Also, the inhibition at 100 µM in experiment [1] (test compound 100 μmol) was 0%; in experiment [2] (test compound 100 μmol), 40%.

As for `CC(C)N(CCO)CCCC(=O)c1ccccc1` [Example 207, 3-(N-hydroxyethylisopropyl)aminopropylphenylketone], the “SOCE level (percentage of inhibition)” value was found to be 0% in experiment [1] (test compound 10 μmol), 0% in experiment [1] (test compound 30 μmol) and 30% in experiment [1] (test compound 100 μmol). Moreover, the “IICR level (percentage of inhibition)” value in experiment [2] (test compound 10 μmol), in experiment [2] (test compound 30 μmol) and in experiment [2] (test compound 100 μmol) was 20% throughout.

Take `CN(CCO)CCC(=O)c1cnccn1` [Example 208, 2-(N-hydroxyethylmethyl)aminoethyl-2-pyrazylketone]: the inhibition at 10 µM stood at 0% in experiment [1] (test compound 10 μmol) and 20% in experiment [2] (test compound 10 μmol). For the same compound, the values for the inhibition at 30 µM in experiment [1] (test compound 30 μmol) and in experiment [2] (test compound 30 μmol) were 10% and 30%, respectively. The inhibition at 100 µM in experiment [1] (test compound 100 μmol) was 20%; in experiment [2] (test compound 100 μmol), 30%.

For orientation: inhibition means the change of the read-out against control, counted positive when it falls.
